From patent publication US8940909B2, “Indicator platform” (Biosynth AG, priority 2009, dated 2015)

Legend:
Type in all cases: cell-based
[1] = test system: Streptococcus agalactiae 195; assay: IO staining of colonies of beta-D-galactosidase positive/negative bacteria (Table IVb); conditions: Streptococcus agalactiae strain 195, b-gal −; 24 h on Nutrient Agar, 150 mg/l indicator, 100 mg/l IPTG; on C: Color of colonies: key: −: absent; +/−: weak; +: strong; ++: very strong; on F: Fluorescence of colonies: key: −: absent; +/−: weak; +: strong; ++: very strong
[2] = test system: Listeria monocytogenes (4b) 290; assay: as above; conditions: Listeria monocytogenes (4b) strain 290, b-gal −; 24 h on Nutrient Agar, 150 mg/l indicator, 100 mg/l IPTG; on C: Color of colonies: key: −: absent; +/−: weak; +: strong; ++: very strong; on F: Fluorescence of colonies: key: −: absent; +/−: weak; +: strong; ++: very strong
[3] = test system: Staphylococcus intermedius 31; assay: as above; conditions: Staphylococcus intermedius strain 31, b-gal +; 24 h on Nutrient Agar, 150 mg/l indicator, 100 mg/l IPTG
[4] = test system: Escherichia coli; assay: IN and IO staining of bacterial colonies under anaerobic conditions; conditions: Nutrient Agar plates, anaerobically incubated with E. coli
Method: Nutrient Agar plates containing 150 mg/l of various substrates and 100 mg/l IPTG were inoculated with Escherichia coli. Plates were put in an anaerobic jar (Anaerojar, Oxoid), an AnaeroGen sachet (Oxoid) was added, the jar was closed and incubated for 24 hours at 37° C.
IN staining cannot be used under anaerobic conditions.

[5] = test system: Shigella dysenteriae Serovar 1 131; assay: IO staining of colonies of beta-D-galactosidase positive/negative bacteria (Table IVb); conditions: Shigella dysenteriae Serovar 1 strain 131, b-gal +/−; 24 h on Nutrient Agar, 150 mg/l indicator, 100 mg/l IPTG
[6] = test system: Aeromonas hydrophila 292; assay: as above; conditions: Aeromonas hydrophila strain 292, b-gal +; 24 h on Nutrient Agar, 150 mg/l indicator, 100 mg/l IPTG; on G: Growth of colonies: key: −: absent; +/−: weak; +: strong; ++: very strong
[7] = test system: Shigella sonnei 133; assay: as above; conditions: Shigella sonnei strain 133, b-gal +/−; 24 h on Nutrient Agar, 150 mg/l indicator, 100 mg/l IPTG; on C: Color of colonies: key: −: absent; +/−: weak; +: strong; ++: very strong; on G: Growth of colonies: key: −: absent; +/−: weak; +: strong; ++: very strong
[8] = test system: Salmonella illa 73; assay: as above; conditions: Salmonella illa strain 73, b-gal +; 24 h on Nutrient Agar, 150 mg/l indicator, 100 mg/l IPTG; further: key: −: absent; +/−: weak; +: strong; ++: very strong
[9] = test system: Bacillus subtilis 65; assay: as above; conditions: Bacillus subtilis strain 65, b-gal −; 24 h on Nutrient Agar, 150 mg/l indicator, 100 mg/l IPTG; on C: Color of colonies: key: −: absent; +/−: weak; +: strong; ++: very strong; on F: Fluorescence of colonies: key: −: absent; +/−: weak; +: strong; ++: very strong
[10] = test system: Enterobacter aerogenes 242; assay: as above; conditions: Enterobacter aerogenes strain 242, b-gal +; 24 h on Nutrient Agar, 150 mg/l indicator, 100 mg/l IPTG; on C: Color of colonies: key: −: absent; +/−: weak; +: strong; ++: very strong; on G: Growth of colonies: key: −: absent; +/−: weak; +: strong; ++: very strong
[11] = test system: Klebsiella pneumoniae 164; assay: as above; conditions: Klebsiella pneumoniae strain 164, b-gal +; 24 h on Nutrient Agar, 150 mg/l indicator, 100 mg/l IPTG; on C: Color of colonies: key: −: absent; +/−: weak; +: strong; ++: very strong; on G: Growth of colonies: key: −: absent; +/−: weak; +: strong; ++: very strong
[12] = test system: Citrobacter freundii 181; assay: as above; conditions: Citrobacter freundii strain 181, b-gal +; 24 h on Nutrient Agar, 150 mg/l indicator, 100 mg/l IPTG; on C: Color of colonies: key: −: absent; +/−: weak; +: strong; ++: very strong; on G: Growth of colonies: key: −: absent; +/−: weak; +: strong; ++: very strong
[13] = test system: Shigella boydii 135; assay: as above; conditions: Shigella boydii strain 135, b-gal −; 24 h on Nutrient Agar, 150 mg/l indicator, 100 mg/l IPTG; further: key: −: absent; +/−: weak; +: strong; ++: very strong
[14] = test system: Staphylococcus aureus 2; assay: as above; conditions: Staphylococcus aureus strain 2, b-gal −, 24 h on Nutrient Agar, 150 mg/l indicator, 100 mg/l IPTG; on F: Fluorescence of colonies: key: −: absent; +/−: weak; +: strong; ++: very strong
[15] = test system: Escherichia coli (O157:H7) 60; assay: as above; conditions: Escherichia coli (O157:H7) strain 60, b-gal +; 24 h on Nutrient Agar, 150 mg/l indicator, 100 mg/l IPTG
[16] = test system: Staphylococcus saprophyticus 273; assay: as above; conditions: Staphylococcus saprophyticus strain 273, b-gal +; 24 h on Nutrient Agar, 150 mg/l indicator, 100 mg/l IPTG; on G: Growth of colonies: key: −: absent; +/−: weak; +: strong; ++: very strong
[17] = test system: Salmonella enteritidis 43; assay: as above; conditions: Salmonella enteritidis strain 43, b-gal −; 24 h on Nutrient Agar, 150 mg/l indicator, 100 mg/l IPTG; further: key: −: absent; +/−: weak; +: strong; ++: very strong
[18] = test system: Pseudomonas aeruginosa 168; assay: as above; conditions: Pseudomonas aeruginosa strain 168, b-gal −, 24 h on Nutrient Agar, 150 mg/l indicator, 100 mg/l IPTG; on C: Color of colonies: key: −: absent; +/−: weak; +: strong; ++: very strong; on G: Growth of colonies: key: −: absent; +/−: weak; +: strong; ++: very strong
[19] = test system: Escherichia coli 270; assay: as above; conditions: Escherichia coli strain 270, b-gal +; 24 h on Nutrient Agar, 150 mg/l indicator, 100 mg/l IPTG; on C: Color of colonies: key: −: absent; +/−: weak; +: strong; ++: very strong; on G: Growth of colonies: key: −: absent; +/−: weak; +: strong; ++: very strong
[20] = test system: Serratia marcescens 40; assay: as above; conditions: Serratia marcescens strain 40, b-gal +; 24 h on Nutrient Agar, 150 mg/l indicator, 100 mg/l IPTG; on G: Growth of colonies: key: −: absent; +/−: weak; +: strong; ++: very strong
[21] = test system: Salmonella bongori 81; assay: as above; conditions: Salmonella bongori strain 81, b-gal +; 24 h on Nutrient Agar, 150 mg/l indicator, 100 mg/l IPTG; on C: Color of colonies: key: −: absent; +/−: weak/variable; +: strong; on G: Growth of colonies: key: −: absent; +/−: weak; +: strong; ++: very strong
[22] = test system: Escherichia coli 61; assay: as above; conditions: Escherichia coli strain 61, b-gal +; 24 h on Nutrient Agar, 150 mg/l indicator, 100 mg/l IPTG; on C: Color of colonies: key: −: absent; +/−: weak; +: strong; ++: very strong; on G: Growth of colonies: key: −: absent; +/−: weak; +: strong; ++: very strong
[23] = test system: Enterobacter cloacae 245; assay: as above; conditions: Enterobacter cloacae strain 245, b-gal +; 24 h on Nutrient Agar, 150 mg/l indicator, 100 mg/l IPTG; on C: Color of colonies: key: −: absent; +/−: weak; +: strong; ++: very strong; on G: Growth of colonies: key: −: absent; +/−: weak; +: strong; ++: very strong
[24] = test system: Yersinia enterocolitica 175; assay: as above; conditions: Yersinia enterocolitica strain 175, b-gal +/−; 24 h on Nutrient Agar, 150 mg/l indicator, 100 mg/l IPTG; on G: Growth of colonies: key: −: absent; +/−: weak; +: strong; ++: very strong

COc1ccc(C(=O)c2ccccc2-n2cc(O[C@@H]3O[C@H](CO)[C@H](O)[C@H](O)[C@H]3O)c3ccc(Cl)cc32)c(OC)c1 [Indicator I27a, 6-Chloro-1-[2-(2,4-dimethoxybenzoyl)phenyl]-1H-indol-3-yl-beta-D-galactopyranoside]
1 mm: S: Size of colonies [4]
+/−: G: Growth of colonies [1] | G: Growth of colonies [2] | G: Growth of colonies [3] | D: Diffusion around colonies [4] | G: Growth of colonies [14] | C: Color of colonies [16] | F: Fluorescence of colonies [16] | C: Color of colonies [21] | F: Fluorescence of colonies [21] | C: Color of colonies [24]
+^1: F: Fluorescence of colonies ([18]; footnote 1: blue autofluorescence)
−: C: Color of colonies [1] | F: Fluorescence of colonies [1] | C: Color of colonies [2] | F: Fluorescence of colonies [2] | C: Color of colonies [3] | F: Fluorescence of colonies [3] | C: Color of colonies [5] | F: Fluorescence of colonies [5] | C: Color of colonies [8] | F: Fluorescence of colonies [8] | C: Color of colonies [9] | F: Fluorescence of colonies [9] | C: Color of colonies [13] | F: Fluorescence of colonies [13] | F: Fluorescence of colonies [14] | C: Color of colonies ([14]; footnote 2: S. aureus natural color) | C: Color of colonies [17] | F: Fluorescence of colonies [17] | C: Color of colonies [18] | F: Fluorescence of colonies [24]
+: G: Growth of colonies [4] | I: Intensity of color [4] | L: Localization on colonies [4] | G: Growth of colonies [5] | C: Color of colonies [6] | F: Fluorescence of colonies [6] | G: Growth of colonies [6] | C: Color of colonies [7] | G: Growth of colonies [7] | G: Growth of colonies [8] | G: Growth of colonies [9] | C: Color of colonies [10] | F: Fluorescence of colonies [10] | G: Growth of colonies [10] | C: Color of colonies [11] | F: Fluorescence of colonies [11] | G: Growth of colonies [11] | C: Color of colonies [12] | F: Fluorescence of colonies [12] | G: Growth of colonies [12] | G: Growth of colonies [13] | G: Growth of colonies [15] | G: Growth of colonies [16] | G: Growth of colonies [17] | G: Growth of colonies [18] | G: Growth of colonies [19] | C: Color of colonies [20] | F: Fluorescence of colonies [20] | G: Growth of colonies [20] | G: Growth of colonies [21] | G: Growth of colonies [22] | G: Growth of colonies [23] | G: Growth of colonies [24]
y-o: C: Color of colonies [4]
++: F: Fluorescence of colonies [7] | C: Color of colonies [15] | F: Fluorescence of colonies [15] | C: Color of colonies [19] | F: Fluorescence of colonies [19] | C: Color of colonies [22] | F: Fluorescence of colonies [22] | C: Color of colonies [23] | F: Fluorescence of colonies [23]
